Experimental data: patent US20210030678A1, “CANNABINOID AND CBD LIPOSOME FORMULATIONS AND USES THEREOF” (Medterra Pharma, priority 2019, published 2021)

Test system: circulating TNFα
Assay: Circulating TNFα versus time post inflammatory trigger (FIG. 17)
Assay type: in vivo
Conditions: systemic inflammatory event; equal doses
Text: FIG. 17 includes a graph illustrating the relative percentage of circulating TNFα versus time post inflammatory trigger for a control, CBD and packaged CBD application.

With `C=C(C)[C@@H]1CCC(C)=C[C@H]1c1c(O)cc(CCCCC)cc1O` [CBD, Cannabidiol] the “effect on relative concentration of circulating TNFα” value was “able to quell a systemic inflammatory event”.
